Results as given in patent US20220213074A1, “ABHD12 INHIBITORS AND METHODS OF MAKING AND USING SAME” (H. Lundbeck A/S, priority 2019, published 2022).

Biological target: T1, ABHD12 (Mus musculus, UniProt Q99LR1)
T1 construct: from tissue; host or cells: mouse brain (membrane fraction)
T1 sequence (Q99LR1 1-398): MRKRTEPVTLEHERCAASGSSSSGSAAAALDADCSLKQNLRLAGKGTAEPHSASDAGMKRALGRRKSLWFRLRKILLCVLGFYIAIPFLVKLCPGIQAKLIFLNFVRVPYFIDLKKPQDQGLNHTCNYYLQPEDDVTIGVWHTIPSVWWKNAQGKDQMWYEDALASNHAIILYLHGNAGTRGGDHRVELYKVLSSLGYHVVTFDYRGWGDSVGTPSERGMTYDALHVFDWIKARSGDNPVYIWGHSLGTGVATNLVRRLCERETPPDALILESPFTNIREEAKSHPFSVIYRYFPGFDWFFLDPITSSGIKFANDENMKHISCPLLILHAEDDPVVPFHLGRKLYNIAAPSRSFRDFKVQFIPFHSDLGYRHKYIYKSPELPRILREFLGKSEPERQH
Experiment: In vitro competitive activity-based protein profiling (FP-Rhodamine probe, gel-based) in mouse brain membrane proteomes
Format: biochemical
Conditions: mouse brain membrane proteome, 30 min preincubation at 37° C.; for inhibition at 1 µM: 1 μM inhibitor; for inhibition at 50 µM: 50 μM inhibitor (stated in cell); for inhibition at 10 µM: 10 μM inhibitor (stated in cell)
Experimental: Compounds were tested to assess their ABHD12 activity using the following assay.
Mouse brain membrane proteomes (50 μL, 1.0 mg/mL total protein concentration) were preincubated with varying concentrations of inhibitors at 37° C. After 30 min, FP-Rhodamine probe (1.0 μL, 50 μM in DMSO) was added and the mixture was incubated for 30 min at room temperature. Reactions were quenched with SDS loading buffer (15 μL-4×) and proteins were resolved by SDS-PAGE gel (10% acrylamide). Following in-gel fluorescence imaging, enzyme activity was determined by measuring intensity of gel bands corresponding to ABHD12 using ImageJ software.

Row | inhibition at 1 µM | IC50 | also measured | Compound
1 | ≥ 75% | 0.1 to 1 µM |  | O=C(Nc1cccnc1)NC1CCN(c2ncccc2Oc2ccc(OC(F)(F)F)cc2Cl)CC1 [Example 23, 1-(1-(3-(2-Chloro-4-(trifluoro-methoxy)phenoxy)pyridin-2-yl)piperidin-4-yl)-3-(pyridin-3-yl) urea]
2 | 25 to 50% |  |  | O=C(Nc1cccnc1)NC1CCN(c2nccc(OCc3cccc(OC(F)(F)F)c3)c2Cl)CC1 [Example 29, 1-(1-(3-Chloro-4-((3-(trifluoro-methoxy)benzyl)oxy)pyridin-2-yl)piperidin-4-yl)-3-(pyridin-3-yl)urea]
3 | ≥ 75% | 0.1 to 1 µM |  | C#Cc1ccc(Oc2ccnc(N3CCC(NC(=O)Nc4cccnc4)CC3)c2Cl)c(Cl)c1 [Example 6, 1-(1-(3-Chloro-4-(2-chloro-4-ethynylphenoxy)pyridin-2-yl)piperidin-4-yl)-3-(pyridin-3-yl)urea]
4 | 0 to 25% |  |  | C#Cc1ccc(N2CCC(NC(=O)Nc3cccnc3)CC2)nc1 [Example 25, 1-(1-(5-Ethynyl-pyridin-2-yl)piperidin-4-yl)-3-(pyridin-3-yl)urea]
5 | ≥ 75% | 0.1 to 1 µM |  | O=C(Nc1cccnc1)NC1CCN(c2nccc(-c3cccc(OC(F)(F)F)c3)c2Cl)CC1 [Example 26, 1-(1-(3-Chloro-4-(3-(trifluoro-methoxy)phenyl)pyridin-2-yl)piperidin-4-yl)-3-(pyridin-3-yl)urea]
6 | ≥ 75% | 0.1 to 1 µM |  | O=C(Nc1cccnc1)NC1CCN(c2nccc(Oc3ccc(OC(F)(F)F)c(F)c3)c2Cl)CC1 [Example 14, 1-(1-(3-Chloro-4-(3-fluoro-4-(trifluoro-methoxy)phenoxy)pyridin-2-yl)piperidin-4-yl)-3-(pyridin-3-yl)urea]
7 | 25 to 50% |  |  | O=C(Nc1cccnc1)NC1CCN(c2nc(Oc3ccc(OC(F)(F)F)cc3Cl)ccc2Cl)CC1 [Example 24, 1-(1-(3-Chloro-6-(2-chloro-4-(trifluoro-methoxy)phenoxy)pyridin-2-yl)piperidin-4-yl)-3-(pyridin-3-yl)urea]
8 | 0 to 25% |  |  | CC(=O)c1ccc(N2CCC(NC(=O)Nc3cccnc3)CC2)nc1 [Example 3, 1-(1-(5-Acetylpyridin-2-yl)piperidin-4-yl)-3-(pyridin-3-yl)urea]
9 |  |  | inhibition at 50 µM: ≥ 75% | O=C(Nc1cccnc1)NC1CCN(c2ccc(Cl)cn2)CC1 [Example 11, 1-(1-(5-Chloropyridin-2-yl)piperidin-4-yl)-3-(pyridin-3-yl) urea]
10 |  |  | inhibition at 10 µM: 50 to 75% | O=C(Nc1cccnc1)NC1CCN(c2cccc(C(F)(F)F)n2)CC1 [Example 1, 1-(Pyridin-3-yl)-3-(1-(6-(trifluoromethyl)pyridin-2-yl)piperidin-4-yl)urea]
11 | ≥ 75% | 0.1 to 1 µM |  | Cc1cc(OC(F)(F)F)ccc1Oc1ccnc(N2CCC(NC(=O)Nc3cccnc3)CC2)c1Cl [Example 16, 1-(1-(3-Chloro-4-(2-methyl-4-(trifluoro-methoxy)phenoxy)pyridin-2-yl)piperidin-4-yl)-3-(pyridin-3-yl)urea]
12 | ≥ 75% | 0.1 to 1 µM |  | O=C(Nc1cccnc1)NC1CCN(c2nccc(-c3ccc(OC(F)(F)F)cc3)c2Cl)CC1 [Example 27, 1-(1-(3-Chloro-4-(4-(trifluoro-methoxy)phenyl)pyridin-2-yl)piperidin-4-yl)-3-(pyridin-3-yl)urea]
13 | 25 to 50% |  |  | O=C(Nc1cccnc1)NC1CCN(c2nccc(OCc3ccc(OC(F)(F)F)cc3)c2Cl)CC1 [Example 28, 1-(1-(3-Chloro-4-((4-(trifluoro-methoxy)benzyl)oxy)pyridin-2-yl)piperidin-4-yl)-3-(pyridin-3-yl)urea]
14 | 0 to 25% |  |  | O=C(Nc1cccnc1)NC1CCN(c2nccc(OC3CCOCC3)c2Cl)CC1 [Example 21, 1-(1-(3-Chloro-4-((tetrahydro-2H-pyran-4-yl)oxy)pyridin-2-yl)piperidin-4-yl)-3-(pyridin-3-yl)urea]
15 | 25 to 50% |  |  | O=C(Nc1cccnc1)NC1CCN(c2cc(Oc3ccc(C(F)(F)F)cc3)ccn2)CC1 [Example 7, 1-(Pyridin-3-yl)-3-(1-(4-(4-(trifluoromethyl)phenoxy)pyridin-2-yl)piperidin-4-yl)urea]
16 | ≥ 75% | 0.1 to 1 µM |  | Cc1c(Oc2ccc(OC(F)(F)F)cc2)ccnc1N1CCC(NC(=O)Nc2cccnc2)CC1 [Example 9, 1-(1-(3-Methyl-4-(4-(trifluoro-methoxy)phenoxy)pyridin-2-yl)piperidin-4-yl)-3-(pyridin-3-yl) urea]
17 |  |  | inhibition at 50 µM: 25 to 50% | CC(C)OC(=O)N1CCC(Oc2ccnc(N3CCC(NC(=O)Nc4cccnc4)CC3)c2)CC1 [Example 22, Isopropyl 4-((2-(4-(3-(pyridin-3-yl)ureido)piperidin-1-yl)pyridin-4-yl)oxy) piperidine-1-carboxylate]
18 | 25 to 50% |  |  | O=C(Nc1cccnc1)NC1CCN(c2nccc(Oc3ccc(F)c(OC(F)(F)F)c3)c2Cl)CC1 [Example 5, 1-(1-(3-Chloro-4-(4-fluoro-3-(trifluoromethoxy)phenoxy)pyridin-2-yl)piperidin-4-yl)-3-(pyridin-3-yl)urea]
19 |  |  | inhibition at 50 µM: 25 to 50% | N#Cc1ccnc(N2CCC(NC(=O)Nc3cccnc3)CC2)c1 [Example 12, 1-(1-(4-Cyanopyridin-2-yl)piperidin-4-yl)-3-(pyridin-3-yl) urea]
20 | ≥ 75% | 0.1 to 1 µM |  | O=C(Nc1cccnc1)NC1CCN(c2nccc(Oc3ccc(Cl)c(OC(F)(F)F)c3)c2Cl)CC1 [Example 2, 1-(1-(3-Chloro-4-(4-chloro-3-(trifluoromethoxy)phenoxy)pyridin-2-yl)piperidin-4-yl)-3-(pyridin-3-yl)urea]
21 | 25 to 50% |  |  | O=C(Nc1cccnc1)NC1CCN(c2cc(-c3ccc(OC(F)(F)F)cc3)ccn2)CC1 [Example 4, 1-(Pyridin-3-yl)-3-(1-(4-(4-(trifluoromethoxy)phenyl)pyridin-2-yl)piperidin-4-yl)urea]
22 | ≥ 75% | 0.1 to 1 µM |  | O=C(Nc1cccnc1)NC1CCN(c2nccc(Oc3ccc(OC(F)(F)F)c(Cl)c3)c2Cl)CC1 [Example 15, 1-(1-(3-Chloro-4-(3-chloro-4-(trifluoro-methoxy)phenoxy)pyridin-2-yl)piperidin-4-yl)-3-(pyridin-3-yl)urea]
23 |  |  | inhibition at 50 µM: 50 to 75% | O=C(Nc1cccnc1)NC1CCN(c2cc(OCC3CC3)ccn2)CC1 [Example 19]
24 | 50 to 75% |  |  | O=C(Nc1cccnc1)NC1CCN(c2nccc(Oc3cccc(OC(F)(F)F)c3)c2Cl)CC1 [Example 17, 1-(1-(3-Chloro-4-(3-(trifluoro-methoxy)phenoxy)pyridin-2-yl)piperidin-4-yl)-3-(pyridin-3-yl)urea]
25 | 0 to 25% |  |  | COc1ccnc(N2CCC(NC(=O)Nc3cccnc3)CC2)c1 [Example 18]
26 | 50 to 75% |  |  | N#Cc1c(Oc2ccc(C(F)(F)F)cc2)ccnc1N1CCC(NC(=O)Nc2cccnc2)CC1 [Example 20, 1-(1-(3-Cyano-4-(4-(trifluoro-methyl)phenoxy)pyridin-2-yl)piperidin-4-yl)-3-(pyridin-3-yl) urea]
27 | ≥ 75% | ≤ 0.1 µM |  | O=C(Nc1cccnc1)NC1CCN(c2nccc(Oc3ccc(OC(F)(F)F)cc3)c2Cl)CC1 [Example 10, 1-(1-(3-Chloro-4-(4-(trifluoro-methoxy)phenoxy)pyridin-2-yl)pipcridin-4-yl)-3-(pyridin-3-yl) urea]
28 |  |  | inhibition at 10 µM: 50 to 75% | O=C(Nc1cccnc1)NC1CCN(c2nccc(C(F)(F)F)c2Cl)CC1 [Example 8, 1-(1-(3-Chloro-4-(trifluoro-methyl)pyridin-2-yl)piperidin-4-yl)-3-(pyridin-3-yl)urea]
29 | 25 to 50% |  |  | O=C(Nc1cccnc1)NC1CCN(c2nccc(Oc3ccccc3OC(F)(F)F)c2Cl)CC1 [Example 13, 1-(1-(3-Chloro-4-(2-(trifluoro-methoxy)phenoxy)pyridin-2-yl)piperidin-4-yl)-3-(pyridin-3-yl)urea]
